From ChEMBL document CHEMBL1147942, “Dual M3 antagonists-PDE4 inhibitors. Part 2: Synthesis and SAR of 3-substituted azetidinyl derivatives” (Bioorg Med Chem Lett, 2007)
Calls of active or inactive are those of the source. The rule behind the calls is not given here.

Assays:
Mus musculus [1] = species: Mus musculus; experiment: Inhibition of PMN cells in BALB/c mouse at 10 mg/ml, nose-only aerosol for 15 mins; type: functional, organism-based
Mus musculus [2] = species: Mus musculus; experiment: Inhibition of BALF cells in BALB/c mouse at 10 mg/ml, nose-only aerosol for 15 mins; type: functional, organism-based
Mus musculus [3] = species: Mus musculus; experiment: Inhibition of mKC cells in BALB/c mouse at 10 mg/ml, nose-only aerosol for 15 mins; type: functional, organism-based
Cavia porcellus = species: Cavia porcellus; details: Trachea
Description: Activity at PDE4 in guinea pig assessed as effect on LTD4-induced trachea contraction

[4] = molecular target: Muscarinic acetylcholine receptor M3 (Homo sapiens, UniProt P20309); experiment: Displacement of [3H]N-methylscopolamine from human recombinant M3 muscarinic receptor expressed in CHO cell membrane; type: cell membranes
Muscarinic acetylcholine receptor M3 (Homo sapiens, UniProt P20309), sequence (P20309 whole entry): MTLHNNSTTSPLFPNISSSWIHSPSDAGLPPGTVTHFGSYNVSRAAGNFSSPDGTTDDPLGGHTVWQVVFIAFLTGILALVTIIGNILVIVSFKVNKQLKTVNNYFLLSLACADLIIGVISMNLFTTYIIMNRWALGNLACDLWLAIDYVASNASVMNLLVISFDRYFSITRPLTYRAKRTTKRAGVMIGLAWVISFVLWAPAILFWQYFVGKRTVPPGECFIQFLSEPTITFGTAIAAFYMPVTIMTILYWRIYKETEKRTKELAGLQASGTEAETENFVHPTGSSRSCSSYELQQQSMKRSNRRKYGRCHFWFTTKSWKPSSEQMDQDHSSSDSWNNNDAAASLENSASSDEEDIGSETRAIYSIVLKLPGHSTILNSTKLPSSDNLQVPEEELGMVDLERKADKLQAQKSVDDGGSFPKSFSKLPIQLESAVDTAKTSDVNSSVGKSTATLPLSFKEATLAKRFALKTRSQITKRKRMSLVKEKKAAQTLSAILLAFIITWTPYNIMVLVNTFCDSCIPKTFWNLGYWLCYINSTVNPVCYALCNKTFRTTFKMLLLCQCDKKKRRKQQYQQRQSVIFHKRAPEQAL

Phosphodiesterase 4 [5] = molecular target: T1, Phosphodiesterase 4 (Homo sapiens, UniProt P27815+Q08499+Q07343+Q08493); experiment: Inhibition of PDE4 in U937 cells; type: cell-based; details: u-937
[6] = Dissociation constant, pKa of the compound; type: physicochemical
[7] = molecular target: Muscarinic acetylcholine receptor M3 (Cavia porcellus, UniProt Q8VH26); experiment: Activity at M3 muscarinic receptor in guinea pig assessed as effect on carbachol-induced trachea contraction
Muscarinic acetylcholine receptor M3 (Cavia porcellus, UniProt Q8VH26), sequence (Q8VH26 whole entry): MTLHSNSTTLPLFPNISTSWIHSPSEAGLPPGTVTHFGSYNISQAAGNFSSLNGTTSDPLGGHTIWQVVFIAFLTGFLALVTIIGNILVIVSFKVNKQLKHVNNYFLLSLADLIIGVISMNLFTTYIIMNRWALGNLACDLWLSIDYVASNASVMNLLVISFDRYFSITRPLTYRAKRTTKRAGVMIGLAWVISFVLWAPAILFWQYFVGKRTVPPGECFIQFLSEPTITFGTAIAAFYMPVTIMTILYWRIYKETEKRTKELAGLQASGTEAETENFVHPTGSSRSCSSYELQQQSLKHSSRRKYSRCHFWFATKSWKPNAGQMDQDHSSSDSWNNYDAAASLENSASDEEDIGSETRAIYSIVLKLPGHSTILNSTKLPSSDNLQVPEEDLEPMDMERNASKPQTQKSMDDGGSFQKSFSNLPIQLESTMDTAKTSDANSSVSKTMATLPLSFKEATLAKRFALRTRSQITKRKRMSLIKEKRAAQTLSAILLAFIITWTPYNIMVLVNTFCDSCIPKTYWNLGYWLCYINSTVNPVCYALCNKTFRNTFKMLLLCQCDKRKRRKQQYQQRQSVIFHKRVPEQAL

Phosphodiesterase 4 [8] = molecular target: T1, Phosphodiesterase 4; experiment: Inhibition of PDE4 in U937 cells at high-affinity rolipram binding state; type: cell-based; details: u-937
[9] = Inhibition of fMLP-induced elastase release from human PMN cells; type: functional, cell-based
Phosphodiesterase 4 [10] = molecular target: T1, Phosphodiesterase 4; experiment: Inhibition of PDE4 in U937 cells at 10 uM; type: cell-based; details: U-937

Ki [4]	IC50 (Phosphodiesterase 4 [5])	pKa [6]	Structure (SMILES)	also measured
			Cc1c(NC2CC2)nc(C2CC2)nc1N1CCCCCC1	Activity (Mus musculus [1]): Dose-dependent effect; Activity (Mus musculus [2]): Dose-dependent effect; Activity (Mus musculus [3]): Dose-dependent effect; pD2 (Cavia porcellus): 6.1
40 nM	4000 nM	6.8	COC1CN(c2nc(C3CC3)nc(N3CCCCCC3)c2C)C1	
79 nM	790 nM	7.4	c1c(N2CCCCCC2)nc(C2CC2)nc1N1CCC1	
16 nM	320 nM	7.1	Cc1c(N2CCCCCC2)nc(C2CC2)nc1N1CCC1	Log IC50 (Phosphodiesterase 4 [5]): -6.6; Kb [7]: 1000 nM; Log Ki (Phosphodiesterase 4 [8]): -5.3; IC50 [9]: 190 nM
631 nM	500 nM	6.4	Cc1c(N2CCCCCC2)nc(C2CC2)nc1N1CC(=O)C1	
13 nM	2000 nM	7.5	CC1CN(c2cc(N3CCCCCC3)nc(C3CC3)n2)C1	
501 nM	200 nM	6.9	FC1CN(c2cc(N3CCCCCC3)nc(C3CC3)n2)C1	
40 nM			Cc1c(N2CCCCCC2)nc(C2CC2)nc1N1CCCCCC1	Activity (Phosphodiesterase 4 [10]): inactive
20 nM	790 nM	8	Cc1c(N2CCCCCC2)nc(C2CC2)nc1N1CC(C)C1	
79 nM			Cc1c(N2CCCCCC2)nc(C2CC2)nc1N1CCCCC1	Activity (Phosphodiesterase 4 [10]): inactive
200 nM	79 nM	6.6	Cc1c(N2CCCCCC2)nc(C2CC2)nc1N1CC(F)C1	Log IC50 (Phosphodiesterase 4 [5]): -7.3; Log Ki (Phosphodiesterase 4 [8]): -6; IC50 [9]: 380 nM; pD2 (Cavia porcellus): 7.4
794 nM	1000 nM	6.4	Cc1c(N2CCCCCC2)nc(C2CC2)nc1N1CC(C#N)C1	
158 nM	630 nM	7	Cc1c(N2CCCCCC2)nc(C2CC2)nc1N1CC(O)C1	

Structure (SMILES)	Ki [4]	IC50 (Phosphodiesterase 4 [5])	pKa [6]	also measured
Cc1c(N2CCCCCC2)nc(C2CC2)nc1N1CC(C)(C)C1	32 nM	5000 nM	7	
Cc1c(N2CCCCCC2)nc(C2CC2)nc1N1CCCC1	1.3 nM	3200 nM		
